From patent publication US11999716B2, “WDR5 inhibitors and modulators” (priority 2018, dated 2024) come the findings set out here.

Bounds are passed on as bounds.

The subject of one experiment is MV4:11 human cancer cell lines. Kind of experiment: Cellular viability / anti-proliferative activity, CellTiter-Glo, 5 day protocol. In kind it is cell-based. As to conditions: Homo sapiens, MV4-11, 120 h, MV4:11 cells; 5 day incubation; CellTiter-Glo; mean of minimum two replicates; read-out: GI50 on cellular proliferation of MV4:11 human cancer cell lines. The gist of the method: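 Compounds were tested over 22 two-fold dilutions starting at 30 μM in 0.3% DMSO, with 200 cells per well (7200 cells/mL). Viability was measured by CellTiter-Glo luminescence at day 5.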
`COc1cncc(CN2CCc3c(cc(Cn4ccnc4C)cc3-c3cn(C)nc3C(F)(F)F)C2=O)c1` [Example 228, 2-((5-Methoxypyridin-3-yl)methyl)-7-((2-methyl-1H-imidazol-1-yl)methyl)-5-(1-methyl-3-(trifluoromethyl)-1H-pyrazol-4-yl)-3,4-dihydroisoquinolin-1(2H)-one]: the GI50 was below 50 nM.
`COc1ccnc(CN2CCc3c(cc(Cn4ccnc4C)cc3-c3cc(F)cnc3C)C2=O)c1` [Example 229, 5-(5-Fluoro-2-methylpyridin-3-yl)-2-((4-methoxypyridin-2-yl)methyl)-7-((2-methyl-1H-imidazol-1-yl)methyl)-3,4-dihydroisoquinolin-1(2H)-one]: the GI50 worked out at 1050 nM.
With `CCn1cc(-c2cc(Cc3ncc[nH]3)cc3c2CCN([C@@H](C)c2cc(OC)ccn2)C3=O)c(C(F)(F)F)n1` [Example 230, (S)-7-((1H-Imidazol-2-yl)methyl)-5-(1-ethyl-3-(trifluoromethyl)-1H-pyrazol-4-yl)-2-(1-(4-methoxypyridin-2-yl)ethyl)-3,4-dihydroisoquinolin-1(2H)-one], the GI50 is below 50 nM.
As to `Cc1nccn1Cc1cc2c(c(-c3cn(C)nc3C(F)(F)F)c1)CCN(Cc1cccc(-c3ccsc3)c1)C2=O` [Example 231, 7-((2-Methyl-1H-imidazol-1-yl)methyl)-5-(1-methyl-3-(trifluoromethyl)-1H-pyrazol-4-yl)-2-(3-(thiophen-3-yl)benzyl)-3,4-dihydroisoquinolin-1(2H)-one], the GI50 stood at 550 nM.
As for `Cc1cnnc(CN2CCc3c(cc(Cn4ccnc4C)cc3-c3cn(C)nc3C(F)(F)F)C2=O)c1` [Example 232, 7-((2-Methyl-1H-imidazol-1-yl)methyl)-5-(1-methyl-3-(trifluoromethyl)-1H-pyrazol-4-yl)-2-((5-methylpyridazin-3-yl)methyl)-3,4-dihydroisoquinolin-1(2H)-one], the GI50 stood at 199 nM.
As to `Cc1nccn1Cc1cc2c(c(-c3cn(C)nc3C(F)(F)F)c1)CCN(Cc1ccccc1)C2=O` [Example 233, 2-Benzyl-7-((2-methyl-1H-imidazol-1-yl)methyl)-5-(1-methyl-3-(trifluoromethyl)-1H-pyrazol-4-yl)-3,4-dihydroisoquinolin-1(2H)-one], the GI50 came to 748 nM.
For the compound `Cc1nccn1Cc1cc2c(c(-c3cn(C)nc3C(F)(F)F)c1)CCN(Cc1cccc(C3CC3)c1)C2=O` [Example 234, 2-(3-Cyclopropylbenzyl)-7-((2-methyl-1H-imidazol-1-yl)methyl)-5-(1-methyl-3-(trifluoromethyl)-1H-pyrazol-4-yl)-3,4-dihydroisoquinolin-1(2H)-one], the GI50 was 283 nM.
Consider `C=Cc1cccc(CN2CCc3c(cc(Cn4ccnc4C)cc3-c3cn(C)nc3C(F)(F)F)C2=O)c1` [Example 235, 7-((2-Methyl-1H-imidazol-1-yl)methyl)-5-(1-methyl-3-(trifluoromethyl)-1H-pyrazol-4-yl)-2-(3-vinylbenzyl)-3,4-dihydroisoquinolin-1(2H)-one], for which the GI50 amounted to 199 nM.
As to `Cc1nccn1Cc1cc2c(c(-c3cn(C)nc3C(F)(F)F)c1)CCN(Cc1cc(Br)cc3[nH]ccc13)C2=O` [Example 236, 2-((6-Bromo-1H-indol-4-yl)methyl)-7-((2-methyl-1H-imidazol-1-yl)methyl)-5-(1-methyl-3-(trifluoromethyl)-1H-pyrazol-4-yl)-3,4-dihydroisoquinolin-1(2H)-one], the GI50 came out at 121 nM.
On to `COc1ccnc([C@H](C)N2CCc3c(cc(Cn4ccnc4C)cc3-c3c[nH]nc3C(F)(F)F)C2=O)c1` [Example 237, (S)-2-(1-(4-methoxypyridin-2-yl)ethyl)-7-((2-methyl-1H-imidazol-1-yl)methyl)-5-(3-(trifluoromethyl)-1H-pyrazol-4-yl)-3,4-dihydroisoquinolin-1(2H)-one], for which the GI50 was below 50 nM.
On to `COc1ccnc([C@H](C)N2CCc3c(cc(Cn4ccnc4C)cc3-c3c[nH]nc3C)C2=O)c1` [Example 238, (S)-2-(1-(4-methoxypyridin-2-yl)ethyl)-7-((2-methyl-1H-imidazol-1-yl)methyl)-5-(3-methyl-1H-pyrazol-4-yl)-3,4-dihydroisoquinolin-1(2H)-one], for which the GI50 stood at 227 nM.
The same measure, in the same setting: the figure for `Cc1nccn1Cc1cc2c(c(-c3cn(C)nc3C(F)(F)F)c1)CCN([C@@H](C)c1cc(C3CC3)nn1C)C2=O` [Example 239, (S)-2-(1-(3-Cyclopropyl-1-methyl-1H-pyrazol-5-yl)ethyl)-7-((2-methyl-1H-imidazol-1-yl)methyl)-5-(1-methyl-3-(trifluoromethyl)-1H-pyrazol-4-yl)-3,4-dihydroisoquinolin-1(2H)-one] is 573 nM; for `Cc1cc(CN2CCc3c(cc(Cn4ccnc4C)cc3-c3cn(C)nc3C(F)(F)F)C2=O)cnc1C` [Example 241, 2-((5,6-Dimethylpyridin-3-yl)methyl)-7-((2-methyl-1H-imidazol-1-yl)methyl)-5-(1-methyl-3-(trifluoromethyl)-1H-pyrazol-4-yl)-3,4-dihydroisoquinolin-1(2H)-one] it is below 50 nM.
On to `CCn1cc(-c2cc(Cn3ccnc3C)cc3c2CCN([C@@H](C)c2cncc(OC)c2)C3=O)c(C(F)(F)F)n1` [Example 243, (S)-5-(1-Ethyl-3-(trifluoromethyl)-1H-pyrazol-4-yl)-2-(1-(5-methoxypyridin-3-yl)ethyl)-7-((2-methyl-1H-imidazol-1-yl)methyl)-3,4-dihydroisoquinolin-1(2H)-one], for which the GI50 is below 50 nM.
For the compound `CCn1cc(-c2cc(Cn3cnc(C)c3)cc3c2CCN([C@H](c2cc(OC)ccn2)C2CC2)C3=O)c(C(F)(F)F)n1` [Example 244, (S)-2-(cyclopropyl(4-methoxypyridin-2-yl)methyl)-5-(1-ethyl-3-(trifluoromethyl)-1H-pyrazol-4-yl)-7-((4-methyl-1H-imidazol-1-yl)methyl)-3,4-dihydroisoquinolin-1(2H)-one], the GI50 amounted to 119 nM.
Consider `CCn1cc(-c2cc(Cn3ccnc3)cc3c2CCN([C@H](c2cc(C)ccn2)C2CC2)C3=O)c(C(F)(F)F)n1` [Example 245, (S)-7-((1H-imidazol-1-yl)methyl)-2-(cyclopropyl(4-methylpyridin-2-yl)methyl)-5-(1-ethyl-3-(trifluoromethyl)-1H-pyrazol-4-yl)-3,4-dihydroisoquinolin-1(2H)-one], for which the GI50 is below 50 nM.
With `Cc1nccn1Cc1cc2c(c(-c3cn(C)nc3C(F)(F)F)c1)CCN(c1cnccc1-c1ccccc1)C2=O` [Example 246, 7-((2-Methyl-1H-imidazol-1-yl)methyl)-5-(1-methyl-3-(trifluoromethyl)-1H-pyrazol-4-yl)-2-(4-phenylpyridin-3-yl)-3,4-dihydroisoquinolin-1(2H)-one], the GI50 is 1870 nM.
Regarding `COc1ccnc([C@H](C)N2CCc3c(cc(Cn4ccnc4C)cc3-c3ccncc3C(F)(F)F)C2=O)c1` [Example 248, (S)-2-(1-(4-Methoxypyridin-2-yl)ethyl)-7-((2-methyl-1H-imidazol-1-yl)methyl)-5-(3-(trifluoromethyl)pyridin-4-yl)-3,4-dihydroisoquinolin-1(2H)-one], the GI50 stood at 55 nM.
For the compound `COc1ccnc([C@H](C)N2CCc3c(cc(Cn4ccnc4C)cc3-c3cncnc3C(F)(F)F)C2=O)c1` [Example 249, (S)-2-(1-(4-Methoxypyridin-2-yl)ethyl)-7-((2-methyl-1H-imidazol-1-yl)methyl)-5-(4-(trifluoromethyl)pyrimidin-5-yl)-3,4-dihydroisoquinolin-1(2H)-one], the GI50 worked out at 1970 nM.
As to `COc1ccnc([C@H](C2CC2)N2CCc3c(cc(Cn4ccnc4)cc3-c3cn(C)nc3C(F)(F)F)C2=O)c1` [Example 252, (S)-7-((1H-Imidazol-1-yl)methyl)-2-(cyclopropyl(4-methoxypyridin-2-yl)methyl)-5-(1-methyl-3-(trifluoromethyl)-1H-pyrazol-4-yl)-3,4-dihydroisoquinolin-1(2H)-one], the GI50 was below 50 nM.
As for `Cc1nccn1Cc1cc2c(c(-c3cn(C)nc3C(F)(F)F)c1)CCN(c1ccc(F)cc1OCC1CC1)C2=O` [Example 253, 2-(2-(Cyclopropylmethoxy)-4-fluorophenyl)-7-((2-methyl-1H-imidazol-1-yl)methyl)-5-(1-methyl-3-(trifluoromethyl)-1H-pyrazol-4-yl)-3,4-dihydroisoquinolin-1(2H)-one], the GI50 was found to be 2090 nM.
Turning to `CCn1cc(-c2cc(Cc3nccn3C)cc3c2CCN([C@@H](C)c2cc(OC)ccn2)C3=O)c(C(F)(F)F)n1` [Example 254, (S)-5-(1-Ethyl-3-(trifluoromethyl)-1H-pyrazol-4-yl)-2-(1-(4-methoxypyridin-2-yl)ethyl)-7-((1-methyl-1H-imidazol-2-yl)methyl)-3,4-dihydroisoquinolin-1(2H)-one], the GI50 worked out at 1340 nM.

Staying with this experiment, now noted: Homo sapiens, MV4-11, 120 h, read-out: GI50 on cellular proliferation of MV4:11 human cancer cell lines.
As for `CCn1cc(-c2cc(Cc3cnc[nH]3)cc3c2CCN([C@@H](C)c2cc(OC)ccn2)C3=O)c(C(F)(F)F)n1` [Example 250, (S)-7-((1H-Imidazol-5-yl)methyl)-5-(1-ethyl-3-(trifluoromethyl)-1H-pyrazol-4-yl)-2-(1-(4-methoxypyridin-2-yl)ethyl)-3,4-dihydroisoquinolin-1(2H)-one], the GI50 was below 50 nM.
As to `COc1ccnc([C@H](C2CC2)N2CCc3c(cc(Cn4ccnc4C)cc3-c3cn(C)nc3C(F)(F)F)C2=O)c1` [Example 251, (S)-2-(Cyclopropyl(4-methoxypyridin-2-yl)methyl)-7-((2-methyl-1H-imidazol-1-yl)methyl)-5-(1-methyl-3-(trifluoromethyl)-1H-pyrazol-4-yl)-3,4-dihydroisoquinolin-1(2H)-one], the GI50 was below 50 nM.

Still in this experiment, the particulars now being: MV4:11 cells; 5 day incubation; CellTiter-Glo; mean of minimum two replicates; read-out: GI50 on cellular proliferation of MV4:11 human cancer cell lines.
In the case of `Cc1cc(CN2CCc3c(cc(Cn4ccnc4C)cc3-c3cn(C)nc3C(F)(F)F)C2=O)cnc1Cl` [Example 242, 2-((6-Chloro-5-methylpyridin-3-yl)methyl)-7-((2-methyl-1H-imidazol-1-yl)methyl)-5-(1-methyl-3-(trifluoromethyl)-1H-pyrazol-4-yl)-3,4-dihydroisoquinolin-1(2H)-one], the GI50 worked out at 50 nM.
